BindingDB's records for doi:10.7270/Q26T0K2P (Nmmlsc, 2010)
pKi: −log10 of the molar value.

Molecular target: T1, Regulator of G-protein signaling 19 (Homo sapiens, UniProt P49795)
T1 sequence (P49795 whole entry): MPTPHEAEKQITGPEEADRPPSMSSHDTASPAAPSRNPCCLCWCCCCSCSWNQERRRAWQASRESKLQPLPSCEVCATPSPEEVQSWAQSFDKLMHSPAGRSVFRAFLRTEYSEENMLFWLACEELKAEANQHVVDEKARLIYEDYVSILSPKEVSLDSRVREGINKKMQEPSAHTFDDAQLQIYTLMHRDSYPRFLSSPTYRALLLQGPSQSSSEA
Experiment: analogs regulating RGS19 interaction with Gαo – biochemical, SAR compounds, multiplexed bead flow cytometry, SAR follow-up (AID 2311)

Question: `NS(=O)(=O)c1ccc(N=NCc2ccc(O)c(O)c2O)c([N+](=O)[O-])c1` [4-[[(E)-(2,3-dihydroxy-4-oxo-1-cyclohexa-2,5-dienylidene)methyl]hydrazo]-3-nitrobenzenesulfonamide] was tested. Which pKi did it give?
Answer: Its pKi is 7.00.
